biological target: T1, Human Neutrophil Elastase (HNE) (Homo sapiens, UniProt P08246); test: Human Neutrophil Elastase Quenched-FRET Assay; format: biochemical; settings: HNE 1.7 nM, substrate MeOSuc-AAPV-AMC 100 μM, 15 min pre-incubation, 30 min incubation at room temperature; read-out: Inhibition of Human Neutrophil Elastase IC50
T1 construct: Human Neutrophil Elastase (HNE) purified from serum; purchased Calbiochem 324681; host or cells: purified from human serum (so in the source)
T1 sequence (P08246 30-247 limits assumed): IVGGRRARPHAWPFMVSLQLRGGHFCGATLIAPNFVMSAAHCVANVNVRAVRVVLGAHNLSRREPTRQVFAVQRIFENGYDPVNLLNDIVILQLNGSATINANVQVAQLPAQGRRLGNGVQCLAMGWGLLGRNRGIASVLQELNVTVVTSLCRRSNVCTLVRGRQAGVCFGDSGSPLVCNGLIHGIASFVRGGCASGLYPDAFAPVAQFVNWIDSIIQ
Method: Human Neutrophil Elastase Quenched-FRET Assay
HNE was stored in 50 mM sodium acetate (NaOAc), 200 mM sodium chloride (NaCl), pH 5.5 with added 30% glycerol at −20° C. […] The substrate was stored in dimethyl sulphoxide (DMSO) at −20° C. […] The assay buffer constitution was: 100 mM Tris(hydroxymethyl)aminomethane (TRIS) (pH 7.5) and 500 mM NaCl. The enzyme and the compounds were incubated at room temperature for 15 minutes. Then 30 μl substrate in assay buffer was added. The assay was incubated for 30 minutes at room temperature. […] The assay was then stopped by adding 60 μl stop solution (140 mM acetic acid, 200 mM sodium monochloroacetate, 60 mM sodium acetate, pH 4.3).

IC50 [nM]	SMILES
0.26	CNC(=O)c1cc(-c2nc(N)sc2-c2ccc(Cl)cc2)c(C)n(-c2cccc(C(F)(F)F)c2)c1=O [Example 3, 5-[2-Amino-5-(4-chlorophenyl)-1,3-thiazol-4-yl]-N,6-dimethyl-2-oxo-1-[3-(trifluoromethyl)-phenyl]-1,2-dihydropyridine-3-carboxamide]
1.6	CNC(=O)c1cc(-c2ocnc2-c2ccc(Cl)cc2)c(C)n(-c2cccc(C(F)(F)F)c2)c1=O [Example 4, 5-[4-(4-Chlorophenyl)-1,3-oxazol-5-yl]-N,6-dimethyl-2-oxo-1-[3-(trifluoromethyl)phenyl]-1,2-dihydropyridine-3-carboxamide]
0.26	CNC(=O)c1cc(-c2nc(N)sc2-c2ccc(C#N)cc2)c(C)n(-c2cccc(C(F)(F)F)c2)c1=O [Example 5, 5-[2-Amino-5-(4-cyanophenyl)-1,3-thiazol-4-yl]-N,6-dimethyl-2-oxo-1-[3-(trifluoromethyl)phenyl]-1,2-dihydropyridine-3-carboxamide]
0.93	CNC(=O)c1cc(-c2ccnn2-c2ccc(C#N)cc2)c(C)n(-c2ccc(F)c(Cl)c2)c1=O [Example 6, 1-(3-Chloro-4-fluorophenyl)-5-[1-(4-cyanophenyl)-1H-pyrazol-5-yl]-N,6-dimethyl-2-oxo-1,2-dihydropyridine-3-carboxamide]
